Data from BigSolDB 2.1.

Conditions: in n-octanol

solubility (mole fraction) (298.15 K)	solubility (mole fraction) (303.15 K)	solubility (mole fraction) (308.15 K)	solubility (mole fraction) (313.15 K)	solubility (mole fraction) (318.15 K)	solubility (mole fraction) (323.15 K)	solubility (mole fraction) (328.15 K)	solubility (mole fraction) (333.15 K)	SMILES
0.000167	0.00018	0.000194	0.000213	0.000235	0.000261	0.000294	0.000332	COc1cc(NS(=O)(=O)c2ccc(N)cc2)nc(OC)n1
–	8.68e-05	9.52e-05	0.000104	–	0.00012	0.000129	0.000136	COc1cc(NS(=O)(=O)c2ccc(N)cc2)ncn1
8.8e-05	9.42e-05	0.000101	0.000108	0.000115	0.000123	0.000132	0.000141	COc1cnc(NS(=O)(=O)c2ccc(N)cc2)nc1
